Measurements reported in patent publication US11427553B2, “Dihydrooxadiazinones” (Bayer Aktiengesellschaft, priority 2017, dated 2022).

How the values were obtained:
[1] = system: IGR37 cells; assay: Assay 1 cell proliferation measurement (CTG, 72 h), IGR37; format: cell-based; settings: Homo sapiens, IGR-37, Cell Titer Glo, read-out: IGR37 IC50 [nM] (melanoma)
[2] = target: human full length PDE3A (Homo sapiens (Human), UniProt Q14432); assay: Assay 4 PDE3A enzyme inhibition (3H-cAMP SPA); format: biochemical; settings: Sf9 cell extract
human full length PDE3A, sequence (Q14432 whole entry): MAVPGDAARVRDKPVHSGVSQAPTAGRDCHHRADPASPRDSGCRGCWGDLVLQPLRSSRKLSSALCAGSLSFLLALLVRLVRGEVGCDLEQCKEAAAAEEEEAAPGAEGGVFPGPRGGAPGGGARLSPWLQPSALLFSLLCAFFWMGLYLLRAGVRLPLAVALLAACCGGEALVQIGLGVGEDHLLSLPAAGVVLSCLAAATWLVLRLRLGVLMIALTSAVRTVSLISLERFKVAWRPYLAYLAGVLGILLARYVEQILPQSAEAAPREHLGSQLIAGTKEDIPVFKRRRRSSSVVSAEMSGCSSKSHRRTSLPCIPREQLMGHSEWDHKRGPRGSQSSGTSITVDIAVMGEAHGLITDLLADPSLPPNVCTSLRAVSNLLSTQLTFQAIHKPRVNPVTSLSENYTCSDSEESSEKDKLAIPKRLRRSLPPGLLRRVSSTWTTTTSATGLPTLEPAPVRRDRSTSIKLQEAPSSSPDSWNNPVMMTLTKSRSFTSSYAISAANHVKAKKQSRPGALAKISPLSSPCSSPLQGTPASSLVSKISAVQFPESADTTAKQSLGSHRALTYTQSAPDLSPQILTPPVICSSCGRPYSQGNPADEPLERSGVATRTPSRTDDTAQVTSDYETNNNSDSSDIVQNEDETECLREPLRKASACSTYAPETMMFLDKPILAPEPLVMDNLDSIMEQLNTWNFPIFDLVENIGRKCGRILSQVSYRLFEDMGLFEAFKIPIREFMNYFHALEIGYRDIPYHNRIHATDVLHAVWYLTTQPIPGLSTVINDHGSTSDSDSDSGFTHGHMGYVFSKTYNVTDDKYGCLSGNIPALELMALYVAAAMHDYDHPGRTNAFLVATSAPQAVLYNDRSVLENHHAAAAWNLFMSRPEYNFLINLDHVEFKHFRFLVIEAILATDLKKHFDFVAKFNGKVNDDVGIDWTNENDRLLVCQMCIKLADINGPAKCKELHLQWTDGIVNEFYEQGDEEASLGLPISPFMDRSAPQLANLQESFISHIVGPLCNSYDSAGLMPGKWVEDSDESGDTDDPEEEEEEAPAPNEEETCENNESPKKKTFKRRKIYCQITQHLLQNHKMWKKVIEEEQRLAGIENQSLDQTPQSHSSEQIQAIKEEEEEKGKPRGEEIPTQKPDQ
Procedure, shortened: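 In this SPA format, the 60-min room-temperature reaction used 0.025 μCi [8-3H]cAMP and diluted full-length PDE3A from Sf9 cells. Percentage activity was plotted against log compound concentration to derive IC50.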

[3] = system: SK-MEL-3 cells; assay: Assay 1 cell proliferation measurement (CTG, 72 h), SK-MEL-3; format: cell-based, human; settings: Homo sapiens, SK-MEL3; Assay 1, 72 h, Cell Titer Glo; read-out: SK-MEL-3 IC50 [nM] (melanoma)
Procedure, shortened: (§1)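 Cells were plated, grown overnight at 37 °C, then treated 72 h with a 10-step 2.5-fold dilution series from 100 nM maximum final (0.3% DMSO vehicle). Viability was read by CellTiter-Glo luminescence. IC50 from a 4-parameter fit, normalised to a 0 h plate (maximum inhibition) and DMSO control (minimum inhibition).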

[4] = system: HeLa cells; assay: Assay 1 cell proliferation measurement (CTG, 72 h), HeLa; format: cell-based, human; settings: Homo sapiens, HeLa; Assay 1, 72 h, Cell Titer Glo; read-out: HeLa IC50 [nM] (Cervical cancer)
Procedure, shortened: as §1

[5] = target: human full length PDE3B (Homo sapiens (Human), UniProt Q13370); assay: Assay 5 PDE3B enzyme inhibition (3H-cAMP SPA); format: biochemical; settings: Sf9 cell extract
human full length PDE3B, sequence (Q13370 whole entry): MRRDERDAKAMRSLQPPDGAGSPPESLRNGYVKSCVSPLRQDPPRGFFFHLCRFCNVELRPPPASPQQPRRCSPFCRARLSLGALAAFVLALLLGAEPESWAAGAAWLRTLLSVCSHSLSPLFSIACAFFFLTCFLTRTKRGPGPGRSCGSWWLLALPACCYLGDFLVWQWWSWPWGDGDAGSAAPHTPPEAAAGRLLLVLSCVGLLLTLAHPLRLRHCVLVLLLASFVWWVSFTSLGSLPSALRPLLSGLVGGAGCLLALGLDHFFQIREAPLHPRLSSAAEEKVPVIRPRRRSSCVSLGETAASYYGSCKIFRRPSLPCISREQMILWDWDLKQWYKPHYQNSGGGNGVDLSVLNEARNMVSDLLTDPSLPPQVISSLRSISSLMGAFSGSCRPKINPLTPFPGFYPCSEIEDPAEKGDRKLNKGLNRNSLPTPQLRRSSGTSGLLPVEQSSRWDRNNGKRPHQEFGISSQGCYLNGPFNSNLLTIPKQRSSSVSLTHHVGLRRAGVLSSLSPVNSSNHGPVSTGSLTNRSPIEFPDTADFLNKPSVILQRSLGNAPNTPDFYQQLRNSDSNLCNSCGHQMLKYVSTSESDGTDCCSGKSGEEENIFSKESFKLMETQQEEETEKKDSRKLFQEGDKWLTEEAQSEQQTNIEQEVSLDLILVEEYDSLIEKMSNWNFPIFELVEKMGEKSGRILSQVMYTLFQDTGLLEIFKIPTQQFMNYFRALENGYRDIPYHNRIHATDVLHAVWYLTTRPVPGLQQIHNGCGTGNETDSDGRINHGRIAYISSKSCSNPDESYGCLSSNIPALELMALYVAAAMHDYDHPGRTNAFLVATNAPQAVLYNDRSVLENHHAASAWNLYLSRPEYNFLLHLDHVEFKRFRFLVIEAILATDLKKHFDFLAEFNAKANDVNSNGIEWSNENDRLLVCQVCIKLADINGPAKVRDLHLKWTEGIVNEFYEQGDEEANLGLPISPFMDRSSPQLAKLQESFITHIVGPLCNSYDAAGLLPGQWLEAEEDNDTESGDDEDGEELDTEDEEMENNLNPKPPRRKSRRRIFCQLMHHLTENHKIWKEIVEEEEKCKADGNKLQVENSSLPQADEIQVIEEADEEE
Procedure, shortened: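 Inhibition was measured by scintillation proximity using [8-3H]adenosine 3′,5′-cyclic phosphate as substrate and full-length human PDE3B from an Sf9 overexpression extract, run one hour at room temperature at pH 7.5.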

[6] = Assay 6 in vitro metabolic stability in cryopreserved human hepatocytes (CL, Fmax); format: in vitro ADME; settings: 1 μM test compound; for Clblood: hepatic in vivo blood clearance calculated (well-stirred) from half-life in cryopreserved human hepatocytes; for Fmax: maximal oral bioavailability calculated from half-life in cryopreserved human hepatocytes
Description: Assay 6 Method for Human Cryo Hepatocytes:
Investigation of In Vitro Metabolic Stability in Cryopreserved Human Hepatocytes (Including Calculation of Hepatic In Vivo Blood Clearance (CL) and Maximal Oral Bioavailability (Fmax))
Cryopreserved Hepatocytes (e.g. purchased from Celsis InVitroTechnologies) were briefly thawed, washed with 45 mL pre-warmed in in vitro GRO HT medium and centrifuged for 5 min at 50×g. The cell pellet was resuspended in 5 ml of Krebs-Henseleit […] (KHB). Cell viability was determined by trypan blue exclusion.
For the metabolic stability assay liver cells were distributed in WME containing 5% FCS to glass vials at a density of 1.0×10^6 vital cells/ml. The test compound was added to a final concentration of 1 μM. During incubation, the hepatocyte suspensions were continuously shaken at 580 rpm and aliquots were taken at 2, 8, 16, 30, 45 and 90 min, to which equal volumes of cold methanol were immediately added. Samples were frozen at −20° C. over night, after subsequently centrifuged for 15 minutes at 3000 rpm and the supernatant was analyzed with an Agilent 1290 HPLC-system with LCMS/MS detection.
The half-life of a test compound was determined from the concentration-time plot. From the half-life the intrinsic clearances were calculated. Together with the additional parameters liver blood flow, amount of liver cells in vivo and in vitro. The hepatic in vivo blood clearance (CL) and the maximal oral bioavailability (Fmax) was calculated.

Compound	IC50 [2]	IC50 [3]	IC50 [4]	IC50 [5]	Clblood [6]	Fmax [6]	IC50 [1]
CC(Nc1ccc(C2=NNC(=O)OC2)cc1C(F)(F)F)C1CC1 (racemic) [Example 240, (rac)-5-{4-[(1-cyclopropylethyl)amino]-3-(trifluoromethyl)phenyl}-3,6-dihydro-2H-1,3,4-oxadiazin-2-one]	180 nM	12 nM	3 nM	260 nM			10 nM
C[C@@H]1OC(=O)NN=C1c1ccc(-c2ccncc2)c(C(F)(F)F)c1 [Example 166, (6S)-6-Methyl-5-[4-(pyridin-4-yl)-3-(trifluoromethyl)phenyl]-3,6-dihydro-2H-1,3,4-oxadiazin-2-one]	69 nM	1 nM	1 nM	42 nM			1 nM
C[C@@H]1OC(=O)NN=C1c1ccc(-c2ccc(O)cc2)c(C(F)(F)F)c1 [Example 174, (6S)-5-[4′-Hydroxy-2-(trifluoromethyl)[1,1′-biphenyl]-4-yl]-6-methyl-3,6-dihydro-2H-1,3,4-oxadiazin-2-one]	27 nM	1 nM	1 nM	16 nM			1 nM
C[C@@H]1OC(=O)NN=C1c1ccc(CN2CCOCC2)c(C(F)(F)F)c1 [Example 196, (6S)-6-Methyl-5-{4-[(morpholin-4-yl)methyl]-3-(trifluoromethyl)phenyl}-3,6-dihydro-2H-1,3,4-oxadiazin-2-one]	810 nM	31 nM	15 nM	790 nM			33 nM
CC(C)(C)Nc1ccc(C2=NNC(=O)OC2)cc1C(F)(F)F [Example 224, 5-[4-(tert-Butylamino)-3-(trifluoromethyl)phenyl]-3,6-dihydro-2H-1,3,4-oxadiazin-2-one]	165 nM	3 nM	2 nM	200 nM	5.83 mL/min/kg	74%	
O=C1NN=C(c2ccc(NCc3cnccn3)c(C(F)(F)F)c2)CO1 [Example 226, 5-[4-{[(Pyrazin-2-yl)methyl]amino}-3-(trifluoromethyl)phenyl]-3,6-dihydro-2H-1,3,4-oxadiazin-2-one]	128 nM	2 nM	1 nM	187 nM			2 nM
O=C1NN=C(c2ccc(N3CCC(F)(F)CC3)c(C(F)(F)F)c2)CO1 [Example 232, 5-[4-(4,4-Difluoropiperidin-1-yl)-3-(trifluoromethyl)phenyl]-3,6-dihydro-2H-1,3,4-oxadiazin-2-one]		5 nM	2 nM				4 nM
N#CC1CCN(c2ccc(C3=NNC(=O)OC3)cc2C(F)(F)F)CC1 [Example 239, 1-[4-(2-Oxo-3,6-dihydro-2H-1,3,4-oxadiazin-5-yl)-2-(trifluoromethyl)phenyl]piperidine-4-carbonitrile]	27 nM	1 nM	0.3 nM	26 nM			1 nM
NC(=O)CNc1ccc(C2=NNC(=O)OC2)cc1C(F)(F)F [Example 256, N^2-[4-(2-Oxo-3,6-dihydro-2H-1,3,4-oxadiazin-5-yl)-2-(trifluoromethyl)phenyl]glycinamide]	240 nM	63 nM	37 nM	480 nM	1.2 mL/min/kg	95%	
C[C@@H]1OC(=O)NN=C1c1ccc(-n2cnc(C(F)(F)F)c2)c(C(F)(F)F)c1 [Example 266, (6S)-6-Methyl-5-{3-(trifluoromethyl)-4-[4-(trifluoromethyl)-1H-imidazol-1-yl]phenyl}-3,6-dihydro-2H-1,3,4-oxadiazin-2-one]	> 1000 nM	35 nM	19 nM	930 nM			65 nM
CC(C)c1ccc(C2=NNC(=O)OC2)cc1C(F)(F)F [Example 270, 5-[4-(Propan-2-yl)-3-(trifluoromethyl)phenyl]-3,6-dihydro-2H-1,3,4-oxadiazin-2-one]	55 nM	15 nM	9 nM	170 nM	<0.17 mL/min/kg	100%	
C[C@@H]1OC(=O)NN=C1c1ccc(N2CC(F)(F)C2)c(C(F)(F)F)c1 [Example 279, (6S)-5-[4-(3,3-Difluoroazetidin-1-yl)-3-(trifluoromethyl)phenyl]-6-methyl-3,6-dihydro-2H-1,3,4-oxadiazin-2-one]		2 nM	1 nM				2 nM
C[C@@H]1OC(=O)NN=C1c1ccc(N2CC(C)(O)C2)c(C(F)(F)F)c1 [Example 280, (6S)-5-[4-(3-Hydroxy-3-methylazetidin-1-yl)-3-(trifluoromethyl)phenyl]-6-methyl-3,6-dihydro-2H-1,3,4-oxadiazin-2-one]		0.4 nM	0.1 nM				0.4 nM

Further molecules by falling IC50 [3], results first:

IC50 [2]	IC50 [3]	IC50 [4]	IC50 [5]	Clblood [6]	Fmax [6]	Compound	IC50 [1]
190 nM	40 nM	1 nM	155 nM			CCC1(O)CCN(c2ccc(C3=NNC(=O)OC3)cc2C(F)(F)F)CC1 [Example 253, 5-[4-(4-Ethyl-4-hydroxypiperidin-1-yl)-3-(trifluoromethyl)phenyl]-3,6-dihydro-2H-1,3,4-oxadiazin-2-one]	5 nM
320 nM	6 nM	2 nM	120 nM			CC1OC(=O)NN=C1c1ccc(-c2ccc(F)cc2)c(C(F)(F)F)c1 (racemic) [Example 192, (rac)-5-[4′-Fluoro-2-(trifluoromethyl)[1,1′-biphenyl]-4-yl]-6-methyl-3,6-dihydro-2H-1,3,4-oxadiazin-2-one]	7 nM
61 nM	5 nM	2 nM	97 nM			CC1(C#N)CN(c2ccc(C3=NNC(=O)OC3)cc2C(F)(F)F)C1 [Example 251, 3-Methyl-1-[4-(2-oxo-3,6-dihydro-2H-1,3,4-oxadiazin-5-yl)-2-(trifluoromethyl)phenyl]azetidine-3-carbonitrile]	4 nM
48 nM	3 nM	1 nM	170 nM	14.3 mL/min/kg	35%	CCOCCNc1ccc(C2=NNC(=O)OC2)cc1C(F)(F)F [Example 260, 5-{4-[(2-Ethoxyethyl)amino]-3-(trifluoromethyl)phenyl}-3,6-dihydro-2H-1,3,4-oxadiazin-2-one]	
138 nM	3 nM	1 nM	110 nM	5 mL/min/kg	78%	CC(C)Cc1ccc(C2=NNC(=O)OC2)cc1C(F)(F)F [Example 268, 5-[4-(2-Methylpropyl)-3-(trifluoromethyl)phenyl]-3,6-dihydro-2H-1,3,4-oxadiazin-2-one]	
37 nM	2 nM	1 nM	88 nM	10.2 mL/min/kg	54%	CC1(O)CN(c2ccc(C3=NNC(=O)OC3)cc2C(F)(F)F)C1 [Example 203, 5-[4-(3-Hydroxy-3-methylazetidin-1-yl)-3-(trifluoromethyl)phenyl]-3,6-dihydro-2H-1,3,4-oxadiazin-2-one]	
12 nM	1 nM	1 nM	8 nM			CC1OC(=O)NN=C1c1ccc(N2CCOCC2)c(C(F)(F)F)c1 (racemic) [Example 126, (rac)-6-Methyl-5-(4-morpholino-3-(trifluoromethyl)phenyl)-3,6-dihydro-2H-1,3,4-oxadiazin-2-one]	2 nM
48 nM	1 nM	0.4 nM	57 nM			CC1OC(=O)NN=C1c1ccc(-c2cnn(C(F)F)c2)c(C(F)(F)F)c1 (racemic) [Example 191, (rac)-5-{4-[1-(Difluoromethyl)-1H-pyrazol-4-yl]-3-(trifluoromethyl)phenyl}-6-methyl-3,6-dihydro-2H-1,3,4-oxadiazin-2-one]	1 nM
